US10969380B2, “Simultaneous detection of cannibalism and senescence as prognostic marker for cancer” (Institut Gustave-Roussy, priority 2012, dated 2021)

Assays:
[1] = tested on: human primary keratinocytes (HEKn); experiment: SA-β-Gal senescence assay in human primary keratinocytes; type: cell-based; conditions: HEKn after fifth passage; 20 μM Kaempferol, 24 hours
Method: FIG. 12. Identification of entescence as a non-cell autonomous senescence. (A) Effects of P2Y2 inhibition on SA-β Gal activity of human primary keratinocytes. After the fifth passages, human primary keratinocytes were cultured during 24 hours in presence or in absence of 20 μM of P2Y2 inhibitor Kaempferol. The number of SA-β Gal positive single or cannibal cells per total number of cells examined (at least 300 per well) was recorded and frequencies of SA-β Gal positive were determined. Error bars represent means±SEM (n=3; *p <0.01). (B) Effects of P2Y2 inhibition on SA-β Gal activity detected after g-irradiation or mithoxantron treatment. […] Then as described above frequencies of SA-β Gal positive were determined (means±SEM; n=3; *p <0.01). […] As previously described, the number of SA-β Gal positive single or cannibal cells per total number of cells examined (at least 300 per well) was recorded (means±SEM; n=3; *p <0.01). […] P21WAF1 expression was also analyzed using antibody against p21^WAF1 (green). […] (F-H) Effects of P2Y2 depletion on DNA damage foci formation, p21^WAF1 expression and SA-β Gal activity detected after Δ133p53. After P2Y2 depletion, the percentage of Δ133p53 depleted cells showing positivity for γ-I-H2AX^+ or p21^WAF1 expression were determined by confocal microscopy (G,H) and analyzed for p Gal activity (Means±SEM; n=3; *P <0.01). […]

HCT116 cells = experiment: SA-β-Gal senescence assay in HCT116 cells; type: cell-based, human; conditions: 20 μM Kaempferol, 24 hours
Method: FIG. 4. Cellular cannibalism leads to senescence. (A,B) Effects of cellular cannibalism on cell proliferation. After cell sorting, cell proliferation of TP53 or Δ133TP53 knocked down and TP53 knocked out single or cannibal cells were performed during 6 days. (C-H) Effects of cellular cannibalism on senescence induction. Cannibal cells mediated by TP53 knockout or Δ133TP53 knockdown were examined in EdU incorporation assay (C,D), in DNA damage response (E,F) and in SA-β-Gal assay (G,H). (C) Determination of EdU incorporation on cannibal cells induced by Δ133TP53 knockdown, or TP53 knockout. […] The number of EdU positive single or cannibal cells per total number of cells examined (at least 300 per well) was recorded. […] (F) Quantification of DNA damage foci in single and cannibal cells after TP53 or Δ133TP53 inactivation. The percentage of γ-H2AX^+ cells or p53BP1^+ cells were determined by confocal microscopy. […] (I) p21^WAF1 expression during coculture of Tp53^+/+ or TP53^−/− cells, P21^WAF1 expression was determined by immunoblot. […] (K) Quantification of p21^WAF1 expression in single and cannibal cells after TP53 or Δ133TP53 inactivation. The percentage of […]21WAF^+ cells in cannibal cells was determined by confocal microscopy. […] P21^WAF1 expression was determined by immunoblot. […] Quantification of SA-β Gal positive cells were realized as described above (n=3; means±SEM; *P <0.01). […]

For `O=c1c(O)c(-c2ccc(O)cc2)oc2cc(O)cc(O)c12` [kaempferol], the “senescence (frequency of senescent, SA-β-Gal-positive cannibal cells) during replicative stress” value [1] was “strongly reduced senescence” and the “senescence (frequency of senescent, SA-β-Gal-positive cannibal cells) after treatment with IR or with MTX” value (HCT116 cells) was “strongly reduced senescence”.
